Measurements taken from ChEMBL document CHEMBL1201862, “PubChem BioAssay data set” (2004).
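In this assay, cells in 96-well plates receive the compound at five concentrations for 48 hours. Endpoints are linearly interpolated between the surrounding concentrations. GI50 = concentration required for 50% inhibition of growth.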 Activity calls are given as the source filed them. No stated cut-off is given here; in the data, active = GI50 up to about 1.1 µM and inactive = higher.

Tests used:
Assay in all cases: NCI anticancer screen, dose series, 48 h
SN12C = test system: SN12C
MOLT-4 = test system: MOLT-4
SK-OV-3 = test system: SK-OV-3
NCI/ADR-RES = test system: NCI/ADR-RES
T47D = test system: T47D
RXF 393 = test system: RXF 393
HOP-92 = test system: HOP-92
COLO 205 = test system: COLO 205
HT-29 = test system: HT-29
SK-MEL-5 = test system: SK-MEL-5
BT-549 = test system: BT-549
K562 = test system: K562
HOP-62 = test system: HOP-62
UACC-62 = test system: UACC-62
UACC-257 = test system: UACC-257
M14 = test system: M14
ACHN = test system: ACHN
DU-145 = test system: DU-145
NCI-H23 = test system: NCI-H23
SNB-19 = test system: SNB-19
A498 = test system: A498
CCRF-CEM = test system: CCRF-CEM
SW-620 = test system: SW-620
MCF7 = test system: MCF7
786-0 = test system: 786-0
OVCAR-8 = test system: OVCAR-8
HCT-15 = test system: HCT-15
Hs-578T = test system: Hs-578T
PC-3 = test system: PC-3
EKVX = test system: EKVX
MDA-N = test system: MDA-N
NCI-H226 = test system: NCI-H226
UO-31 = test system: UO-31
SF-268 = test system: SF-268
U-251 = test system: U-251
IGROV-1 = test system: IGROV-1
SF-295 = test system: SF-295
A549 = test system: A549
KM12 = test system: KM12
OVCAR-4 = test system: OVCAR-4
LOX IMVI = test system: LOX IMVI
NCI-H460 = test system: NCI-H460
HL-60 = test system: HL-60
CAKI-1 = test system: CAKI-1
NCI-H522 = test system: NCI-H522
Malme-3M = test system: Malme-3M
MDA-MB-231 = test system: MDA-MB-231
OVCAR-3 = test system: OVCAR-3
HCC 2998 = test system: HCC 2998
SK-MEL-2 = test system: SK-MEL-2
SNB-75 = test system: SNB-75
OVCAR-5 = test system: OVCAR-5
MDA-MB-435 = test system: MDA-MB-435
RPMI-8226 = test system: RPMI-8226
SR = test system: SR
SK-MEL-28 = test system: SK-MEL-28
HCT-116 = test system: HCT-116
SF-539 = test system: SF-539

**Q.** How did the GI50 (SN12C) turn out when `COC(=O)C(CCSC)NC(=O)Cc1ccc(C(=O)c2ccccc2)cc1` (stereo not drawn) was run?
**A.** Its GI50 is 50.1 µM (inactive).

**Q.** What about the GI50 (MOLT-4) of the same compound?
**A.** Its GI50 is 55 µM (inactive).

**Q.** And the GI50 (SK-OV-3)?
**A.** The GI50 was 40.4 µM (inactive).

**Q.** And the GI50 (NCI/ADR-RES)?
**A.** The GI50 was 26.7 µM (inactive).

**Q.** What about the GI50 (T47D) of the same compound?
**A.** The GI50 was 59.2 µM (inactive).

**Q.** What about the GI50 (RXF 393) of the same compound?
**A.** The GI50 was > 100 µM (inactive).

**Q.** What about the GI50 (HOP-92) of the same compound?
**A.** The GI50 was 41.8 µM (inactive).

**Q.** And the GI50 (COLO 205)?
**A.** Its GI50 is > 100 µM (inactive).

**Q.** And the GI50 (HT-29)?
**A.** Its GI50 is 25.8 µM (inactive).

**Q.** And the GI50 (SK-MEL-5)?
**A.** Its GI50 is 32.5 µM (inactive).

**Q.** What about the GI50 (BT-549) of the same compound?
**A.** The GI50 was 29 µM (inactive).

**Q.** What about the GI50 (K562) of the same compound?
**A.** Its GI50 is 37.8 µM (inactive).

**Q.** And the GI50 (HOP-62)?
**A.** Its GI50 is 88.1 µM (inactive).

**Q.** And the GI50 (UACC-62)?
**A.** Its GI50 is 51.2 µM (inactive).

**Q.** And the GI50 (UACC-257)?
**A.** The GI50 was > 100 µM (inactive).

**Q.** And the GI50 (M14)?
**A.** The GI50 was 35.5 µM (inactive).

**Q.** And the GI50 (ACHN)?
**A.** The GI50 was > 100 µM (inactive).

**Q.** And the GI50 (DU-145)?
**A.** The GI50 was 86.9 µM (inactive).

**Q.** And the GI50 (NCI-H23)?
**A.** The GI50 was 44.8 µM (inactive).

**Q.** And the GI50 (SNB-19)?
**A.** Its GI50 is 82.6 µM (inactive).

**Q.** What about the GI50 (A498) of the same compound?
**A.** Its GI50 is > 100 µM (inactive).

**Q.** What about the GI50 (CCRF-CEM) of the same compound?
**A.** The GI50 was 42.5 µM (inactive).

**Q.** What about the GI50 (SW-620) of the same compound?
**A.** The GI50 was 42.4 µM (inactive).

**Q.** What about the GI50 (MCF7) of the same compound?
**A.** Its GI50 is 47.3 µM (inactive).

**Q.** And the GI50 (786-0)?
**A.** Its GI50 is > 100 µM (inactive).

**Q.** And the GI50 (OVCAR-8)?
**A.** Its GI50 is 73.3 µM (inactive).

**Q.** And the GI50 (HCT-15)?
**A.** Its GI50 is 36.1 µM.

**Q.** What about the GI50 (Hs-578T) of the same compound?
**A.** The GI50 was 33.1 µM (inactive).

**Q.** What about the GI50 (PC-3) of the same compound?
**A.** The GI50 was 56.8 µM (inactive).

**Q.** What about the GI50 (EKVX) of the same compound?
**A.** Its GI50 is 39.2 µM (inactive).

**Q.** What about the GI50 (MDA-N) of the same compound?
**A.** The GI50 was 14.9 µM (inactive).

**Q.** And the GI50 (NCI-H226)?
**A.** Its GI50 is 78.5 µM (inactive).

**Q.** And the GI50 (UO-31)?
**A.** Its GI50 is 53.7 µM (inactive).

**Q.** What about the GI50 (SF-268) of the same compound?
**A.** The GI50 was > 100 µM (inactive).

**Q.** And the GI50 (U-251)?
**A.** Its GI50 is 34.6 µM (inactive).

**Q.** What about the GI50 (IGROV-1) of the same compound?
**A.** Its GI50 is 64.3 µM (inactive).

**Q.** And the GI50 (SF-295)?
**A.** Its GI50 is 42.5 µM (inactive).

**Q.** And the GI50 (A549)?
**A.** Its GI50 is 38.4 µM (inactive).

**Q.** And the GI50 (KM12)?
**A.** The GI50 was 25.9 µM (inactive).

**Q.** What about the GI50 (OVCAR-4) of the same compound?
**A.** The GI50 was > 100 µM (inactive).

**Q.** And the GI50 (LOX IMVI)?
**A.** The GI50 was 55.7 µM (inactive).

**Q.** And the GI50 (NCI-H460)?
**A.** The GI50 was 34.7 µM (inactive).

**Q.** And the GI50 (HL-60)?
**A.** The GI50 was 32.7 µM (inactive).

**Q.** And the GI50 (CAKI-1)?
**A.** Its GI50 is 70.3 µM (inactive).

**Q.** What about the GI50 (NCI-H522) of the same compound?
**A.** Its GI50 is 57.8 µM (inactive).

**Q.** What about the GI50 (Malme-3M) of the same compound?
**A.** The GI50 was > 100 µM (inactive).

**Q.** And the GI50 (MDA-MB-231)?
**A.** Its GI50 is 37.3 µM (inactive).

**Q.** And the GI50 (OVCAR-3)?
**A.** Its GI50 is 67.6 µM (inactive).

**Q.** And the GI50 (HCC 2998)?
**A.** The GI50 was > 100 µM (inactive).

**Q.** What about the GI50 (SK-MEL-2) of the same compound?
**A.** Its GI50 is 48.6 µM (inactive).

**Q.** And the GI50 (SNB-75)?
**A.** Its GI50 is 40.6 µM (inactive).

**Q.** And the GI50 (OVCAR-5)?
**A.** The GI50 was > 100 µM (inactive).

**Q.** And the GI50 (MDA-MB-435)?
**A.** The GI50 was 29.1 µM (inactive).

**Q.** And the GI50 (RPMI-8226)?
**A.** The GI50 was 46.5 µM (inactive).

**Q.** And the GI50 (SR)?
**A.** The GI50 was 31.3 µM (inactive).

**Q.** What about the GI50 (SK-MEL-28) of the same compound?
**A.** The GI50 was > 100 µM (inactive).

**Q.** And the GI50 (HCT-116)?
**A.** The GI50 was 39.7 µM (inactive).

**Q.** What does the source list for `C/C(=N\Nc1nc2ccccc2o1)c1cc2ccccc2cn1`?
**A.** GI50 (SN12C): < 0.01 µM (active); GI50 (MOLT-4): < 0.01 µM (active); GI50 (SK-OV-3): 0.0474 µM (active); GI50 (NCI/ADR-RES): < 0.01 µM (active); GI50 (T47D): < 0.01 µM (active); GI50 (RXF 393): 0.946 µM (active); GI50 (HOP-92): < 0.0208 µM (active); GI50 (COLO 205): < 0.01 µM (active); GI50 (HT-29): < 0.01 µM (active); GI50 (SK-MEL-5): 0.0101 µM (active); GI50 (BT-549): 0.173 µM (active); GI50 (K562): < 0.01 µM (active); GI50 (HOP-62): 0.14 µM (active); GI50 (UACC-62): 0.0775 µM (active); GI50 (UACC-257): < 0.01 µM (active); GI50 (M14): < 0.01 µM (active); GI50 (ACHN): < 0.01 µM (active); GI50 (DU-145): 0.349 µM (active); GI50 (NCI-H23): < 0.0187 µM (active); GI50 (SNB-19): 0.547 µM (active); GI50 (A498): 15 µM (inactive); GI50 (CCRF-CEM): < 0.01 µM (active); GI50 (SW-620): < 0.01 µM (active); GI50 (MCF7): < 0.01 µM (active); GI50 (786-0): < 0.01 µM (active); GI50 (OVCAR-8): < 0.01 µM (active); GI50 (HCT-15): < 0.01 µM; GI50 (Hs-578T): 0.237 µM (active); GI50 (PC-3): < 0.01 µM (active); GI50 (EKVX): < 0.01 µM (active); GI50 (MDA-N): 0.942 µM (active); GI50 (NCI-H226): < 0.0208 µM (active); GI50 (UO-31): < 0.0147 µM (active); GI50 (SF-268): < 0.0188 µM (active); GI50 (U-251): < 0.0215 µM (active); GI50 (IGROV-1): < 0.01 µM (active); GI50 (SF-295): 0.174 µM (active); GI50 (A549): 0.054 µM (active); GI50 (SF-539): < 28.1 nM (active); GI50 (KM12): 0.0346 µM (active); GI50 (OVCAR-4): 0.0906 µM (active); GI50 (NCI-H460): 0.0311 µM (active); GI50 (HL-60): < 0.01 µM (active); GI50 (CAKI-1): < 0.01 µM (active); GI50 (NCI-H522): < 0.01 µM (active); GI50 (Malme-3M): < 0.01 µM (active); GI50 (MDA-MB-231): < 0.01 µM (active); GI50 (OVCAR-3): < 0.01 µM (active); GI50 (SK-MEL-2): 2.98 µM (inactive); GI50 (SNB-75): 0.476 µM (active); GI50 (OVCAR-5): 0.225 µM (active); GI50 (MDA-MB-435): 0.202 µM (active); GI50 (RPMI-8226): < 0.0235 µM (active); GI50 (SR): 0.112 µM (active); GI50 (SK-MEL-28): 0.364 µM (active); GI50 (HCT-116): < 0.01 µM (active)
